According to patent US20210113617A1, “METHODS AND COMPOSITIONS FOR TH9 CELL MEDIATED CANCER TREATMENT” (Wake Forest University Health Sciences, priority 2018, published 2021):

Legend:
[1] = system: OT-II-Th9 cells; assay: QNZ on restimulated OT-II-Th9 cells (CFSE dilution, cell yield, Annexin V/PI); assay type: cell-based, mice
Experimental: (§1) CFSE labeling and cytotoxicity assay. In some experiments, Th cells were incubated for 5 minutes at 37° C. with 1 μM CFSE in PBS, and then washed extensively. We measured proliferation of T cells by the relative CFSE dilution method after stimulation or transfer into tumor-bearing mice. In the cytotoxicity assay, B16-OVA target cells or B16 non-target cells for OT-II T cells were labeled with 5 μM CFSE. B16-OVA target cells or B16 non-target control cells were incubated alone in triplicate with the OT-II T cells at a 1:10 effector-to-target ratio. For TRP-1 T cells, B16 target cells or MC38 non-target control cells were used. After 18 hours, CFSE^+ tumor cells from each target and control well were stained using FVD and analyzed by FACS. FVD^+ tumor cells were considered as dead cells. The percent specific lysis was calculated as (FVD^+ target−FVD^+ control)×100%.
(§2) Moreover, we further confirmed the increased proliferative capacity of Th9 cells by CFSE-dilution assay and by calculating the cell yields after the first-round activation and the subsequent reactivation (FIGS. 5G-5H).

[2] = system: OT-II-Th17 cells; assay: QNZ on restimulated OT-II-Th17 cells (CFSE dilution); assay type: cell-based, mice; conditions: restimulated with antigen-pulsed APCs for 2 days in presence of QNZ
Experimental: as §1, §2

Nc1ccc2ncnc(NCCc3ccc(Oc4ccccc4)cc3)c2c1 [QNZ]
Th9 hyperproliferation ([1]; restimulated with OT-II peptide-pulsed APCs in presence of QNZ for 48 hours): significantly arrested Th9 hyperproliferation | Th9 cell apoptosis ([1]; restimulated with antigen-pulsed APCs for 2 days in presence of QNZ): did not induce Th9 cell apoptosis | proliferation of Th17 [2]: minimal effect
